Measured values: patent US11433053B2, “LSD1 inhibitor and preparation method and application thereof” (CSPC ZHONGQI PHARMACEUTICAL TECHNOLOGY (SHIJIAZHUANG) CO., …, priority 2017, dated 2022)

Legend:
[1] = target: human LSD1 (Homo sapiens (Human), UniProt O60341); experiment: Evaluation of enzyme activity: LSD1 fluorescence coupling enzyme assay (HRP/Amplex Red); assay type: biochemical; conditions: human LSD1, histone H3(1-21)K4me2 peptide 10 μM, 30 min pre-incubation
Procedure: The purpose of this test is to test the in vitro inhibitory activities of the compounds against LSD1. The enzyme used in this experiment was human LSD1, and the standard substrate was histone H3(1-21)K4me2 peptide (10 μM). HCI-2509 (SP2509) was used as reference compound, and the fluorescence coupling enzyme assay was employed. The production of FAD-dependent H2O2 as a result of demethylase activity of LSD1 was measured by coupling with HRP and Amplex Red. Compounds as well as control compound HCl-2509 were tested in 10-dose IC50 mode with a 3-fold serial dilution in duplicate starting at 10 μm. All compounds were pre-incubated 30 mins with enzyme before added substrate to start reaction. Fluorescence measurement: Ex/Em=535/590 by EnVision.
The test compound's inhibitory activities against LSD11 was classified as: + for IC50≤50 nM; ++ for IC50>50 nM and ≤100 nM; +++ for IC50>100 nM and ≤500 nM, and the results are shown in Table 1.

[2] = system: H1417 cells; experiment: Cell proliferation inhibitory activity on H1417 cells (CellTiter-Glo, 10 days); assay type: cell-based, human; conditions: for IC50: 10 days incubation; for Emax: NCI-H1417, H1417 cells, read-out: Maximum inhibition percentage (%)
Procedure: Experimental purposes: To test the proliferation inhibitory activities of the test compounds on H1417 cells.
Experimental materials: RPMI 1640 medium, fetal bovine serum, Promega CellTiter-Glo reagent. The H1417 cell line purchased from ATCC. Envision Multi-Label Analyzer (PerkinElmer).
Experimental method: H1417 cells were seeded in a black 384-well plate, 1000 cells per well in […] of cell suspension. The test compounds were diluted 3-fold with Epmotion to the 10th concentration i.e, the compounds were diluted from 10 mmol to […], and a double duplicate well experiment was set. 198 μL medium was added to the middle plate, according to the corresponding position, 2 μL gradient diluted compounds were added to the middle plate. The mixture was mixed evenly and transferred 20 μL per well to the cell plates. The cell plates were incubated in a carbon dioxide incubator for 10 days. 25 μL of Promega CellTiter-Glo reagent per well was added to the cell plate and the mixture was incubated for 10 minutes at room temperature to stabilize the luminescence signal. Readings were performed by PerkinElmer Envision multi-label analyzer.
Data analysis: The original data was converted to the inhibition rate by the equation (Max-Ratio)/(Max-Min)*100%, and the value of IC50 can be obtained by curve fitting with four parameters. (Model 205 in XLFIT5, iDBS)
The growth inhibitory activities of the test compounds on H1417 cells were classified as + for IC50≤100 nM; ++ for IC50>100 nM and ≤500 nM; +++ for IC50>500 nM and ≤1000 nM; the highest percentage inhibition of cell viability was classified as: […]; 90%>B≥70%; 70%>C≥50%.

[3] = Homo sapiens, NCI-H1417, 240 h, H1417 cells
[4] = Homo sapiens, highest percentage inhibition of cell viability

| Structure (SMILES) | IC50 [1] | IC50 [2, 3] | Emax [2, 4] | IC50 ([2]; H1417 cells) | Maximum inhibition percentage (%) ([2]; H1417 cells, highest percentage inhibition of cell viability) |
| --- | --- | --- | --- | --- | --- |
| N#CC1(CN[C@H]2CC2c2ccccc2)CC1 (some centres unmarked) [Example 1] | 100 to 500 nM | ≤ 100 nM | 90 to 100% |  |  |
| NCC1(CN[C@H]2CC2c2ccccc2)CC1 (some centres unmarked) [Example 4] | ≤ 50 nM | ≤ 100 nM | 50 to 70% |  |  |
| CCNCC1(CN[C@H]2CC2c2ccccc2)CC1 (some centres unmarked) [Example 6] | 100 to 500 nM | 500 to 1000 nM | 50 to 70% |  |  |
| N#CC1(CN[C@H]2CC2c2ccccc2)CCC1 (some centres unmarked) [Example 8] | 50 to 100 nM | 100 to 500 nM | 50 to 70% |  |  |
| NCC1(CN[C@H]2CC2c2ccccc2)CCC1 (some centres unmarked) [Example 9] | ≤ 50 nM | ≤ 100 nM | 70 to 90% |  |  |
| Clc1ccc(-c2noc(C3(CN[C@H]4CC4c4ccccc4)CC3)n2)cc1 (some centres unmarked) [Example 69] | ≤ 50 nM | 500 to 1000 nM | 50 to 70% |  |  |
| Clc1ccc(-c2nnc(C3(CN[C@H]4CC4c4ccccc4)CC3)o2)cc1 (some centres unmarked) [Example 70] | ≤ 50 nM | 100 to 500 nM | 90 to 100% |  |  |
| CC(C)Oc1ccc(-c2nc(C3(CN[C@H]4CC4c4ccccc4)CCC3)no2)cc1 (some centres unmarked) [Example 87] | ≤ 50 nM | 100 to 500 nM | 50 to 70% |  |  |
| FC(F)(F)Oc1ccc(-c2nc(C3(CN[C@H]4CC4c4ccccc4)CCC3)no2)cc1 (some centres unmarked) [Example 88] | ≤ 50 nM | 100 to 500 nM | 50 to 70% |  |  |
| FC(F)Oc1ccc(-c2nc(C3(CN[C@H]4CC4c4ccccc4)CCC3)no2)cc1 (some centres unmarked) [Example 89] | ≤ 50 nM | 100 to 500 nM | 50 to 70% |  |  |
| NC(=O)c1ccc(-c2nc(C3(CN[C@H]4CC4c4ccccc4)CCC3)no2)cc1 (some centres unmarked) [Example 95] | ≤ 50 nM | ≤ 100 nM | 50 to 70% |  |  |
| N#Cc1ccc2c(c1)CN(CC1(CN[C@H]3CC3c3ccccc3)CC1)C2 (some centres unmarked) [Example 100] | ≤ 50 nM | 100 to 500 nM | 50 to 70% |  |  |
| CN(C)[C@H]1CC[C@@H](c2nc(C3(CN[C@@H]4C[C@H]4c4ccccc4)CC3)no2)CC1 [Example 116] | ≤ 50 nM | 100 to 500 nM | 70 to 90% |  |  |
| O=C(N[C@H]1CC[C@@H](c2nc(C3(CN[C@@H]4C[C@H]4c4ccccc4)CC3)no2)CC1)C1CC1 [Example 117] | ≤ 50 nM | 100 to 500 nM | 70 to 90% |  |  |
| c1ccc(C2C[C@@H]2NCC2(c3noc(-c4ccc5scnc5c4)n3)CCC2)cc1 (some centres unmarked) [Example 127] | ≤ 50 nM | 100 to 500 nM | 50 to 70% |  |  |
| COc1ccc(-c2nc(C3(CN[C@H]4CC4c4ccccc4)CCC3)no2)cn1 (some centres unmarked) [Example 129] | ≤ 50 nM | 100 to 500 nM | 50 to 70% |  |  |
| FC(F)(F)c1ccc(-c2nc(C3(CN[C@H]4CC4c4ccccc4)CCC3)no2)cc1 (some centres unmarked) [Example 132] | ≤ 50 nM | 100 to 500 nM | 50 to 70% |  |  |
| N[C@H]1CC[C@@H](c2nc(C3(CN[C@@H]4C[C@H]4c4ccccc4)CC3)no2)C1 [Example 147] | ≤ 50 nM | 500 to 1000 nM | 90 to 100% |  |  |
| O=C(O)[C@H]1C[C@H](c2nc(C3(CN[C@@H]4C[C@H]4c4ccccc4)CC3)no2)C1 [Example 149] | 50 to 100 nM |  |  | 500 to 1000 nM | C (70%>C≥50%) |
| N[C@@H](CCc1nc(C2(CN[C@@H]3C[C@H]3c3ccccc3)CC2)no1)C(=O)O [Example 153] | 100 to 500 nM | 500 to 1000 nM | 90 to 100% |  |  |
| c1ccc([C@@H]2C[C@H]2NCC2(c3noc([C@H]4C[C@H]5CNC[C@H]5C4)n3)CC2)cc1 [Example 156] | 50 to 100 nM | 100 to 500 nM | 70 to 90% |  |  |
| c1ccc([C@@H]2C[C@H]2NCC2(c3noc([C@@H]4C[C@H]5CNC[C@H]5C4)n3)CC2)cc1 [Example 157] | 50 to 100 nM | 500 to 1000 nM | 70 to 90% |  |  |
| c1ccc([C@@H]2C[C@H]2NCC2(c3noc(C4CCC5(CC4)CNC5)n3)CC2)cc1 [Example 158] | ≤ 50 nM | 500 to 1000 nM | 90 to 100% |  |  |
| NC1CCN(c2nc(C3(CN[C@@H]4C[C@H]4c4ccccc4)CC3)no2)CC1 [Example 159] | 50 to 100 nM | 100 to 500 nM | 90 to 100% |  |  |
| c1ccc(C2C[C@@H]2NCC2(c3noc(C4CCc5nc[nH]c5C4)n3)CC2)cc1 (some centres unmarked) [Example 161] | ≤ 50 nM | 100 to 500 nM | 70 to 90% |  |  |
| c1ccc(C2C[C@@H]2NCC2(c3noc(-c4cn5c(n4)CCCC5)n3)CC2)cc1 (some centres unmarked) [Example 162] | ≤ 50 nM | 500 to 1000 nM | 90 to 100% |  |  |
| c1ccc(C2C[C@@H]2NCC2(c3noc(CC4CCNCC4)n3)CC2)cc1 (some centres unmarked) [Example 163] | 100 to 500 nM | 100 to 500 nM | 70 to 90% |  |  |

| Structure (SMILES) | IC50 [1] | IC50 [2, 3] | Emax [2, 4] | IC50 ([2]; H1417 cells) | Maximum inhibition percentage (%) ([2]; H1417 cells, highest percentage inhibition of cell viability) |
| --- | --- | --- | --- | --- | --- |
| COC(=O)[C@H]1CC[C@H](c2nc(C3(CN[C@@H]4C[C@H]4c4ccccc4)CC3)no2)CC1 [Example 171] | ≤ 50 nM | 100 to 500 nM | 50 to 70% |  |  |
| O=C(O)c1ccc(-c2nc(C3(CN[C@H]4CC4c4ccccc4)CC3)no2)cc1 (some centres unmarked) [Example 181] | ≤ 50 nM |  |  |  |  |
| Fc1ccccc1-c1nc(C2(CN[C@H]3CC3c3ccccc3)CC2)no1 (some centres unmarked) [Example 185] | ≤ 50 nM |  |  |  |  |
| Cc1oc(C2(CN[C@H]3C[C@@H]3c3ccccc3)CCC2)nc1C(=O)O [Example 186] | 100 to 500 nM |  |  |  |  |
| Fc1ccc(-c2nc(C3(CN[C@H]4CC4c4ccccc4)CCC3)no2)c(F)c1 (some centres unmarked) [Example 187] | ≤ 50 nM |  |  |  |  |
| O=C(O)c1ccc(-c2nc(C3(CN[C@H]4CC4c4ccccc4)CCC3)no2)cc1 (some centres unmarked) [Example 188] | ≤ 50 nM |  |  |  |  |
| CC(C)Oc1ccc(-c2nc(C3(CN[C@H]4CC4c4ccccc4)CCC3)no2)cc1C#N (some centres unmarked) [Example 189] | ≤ 50 nM |  |  |  |  |
| N#Cc1cc(F)cc(-c2nc(C3(CN[C@H]4CC4c4ccccc4)CCC3)no2)c1 (some centres unmarked) [Example 190] | ≤ 50 nM |  |  |  |  |
| Fc1cc(F)c(-c2nc(C3(CN[C@H]4CC4c4ccccc4)CCC3)no2)c(F)c1 (some centres unmarked) [Example 191] | ≤ 50 nM |  |  |  |  |
| Cc1sc(C2(CN[C@H]3CC3c3ccccc3)CCC2)nc1C(=O)O (some centres unmarked) [Example 194] | 100 to 500 nM |  |  |  |  |
| O=C(O)c1ccc(CNC2(CN[C@H]3C[C@@H]3c3ccccc3)CC2)cc1 [Example 200] | 100 to 500 nM |  |  |  |  |
| CC1(C)CCN(CC2(CN[C@H]3C[C@@H]3c3ccccc3)CC2)C1 [Example 202] | 50 to 100 nM |  |  |  |  |
| O=C(O)c1ccc(CN2CC(c3nc(C4(CN[C@H]5C[C@@H]5c5ccccc5)CC4)no3)C2)cc1 [Example 205] | 100 to 500 nM |  |  |  |  |
| N[C@H]1CC[C@@H](c2nc(C3(CN[C@@H]4C[C@H]4c4ccccc4)CCC3)no2)CC1 [Example 209] | ≤ 50 nM |  |  |  |  |
| c1ccc([C@H]2C[C@@H]2NCC2(CN3CCC3)CC2)cc1 [Example 211] | 50 to 100 nM |  |  |  |  |
| C[C@H]1CCCN1CC1(CN[C@H]2C[C@@H]2c2ccccc2)CC1 [Example 212] | 100 to 500 nM |  |  |  |  |
| O=C(O)c1ccc(CN2CCC(c3nc(C4(CN[C@H]5C[C@@H]5c5ccccc5)CC4)no3)C2)cc1 (some centres unmarked) [Example 215] | 100 to 500 nM |  |  |  |  |
| CN1CCC(c2nc(C3(CN[C@H]4C[C@@H]4c4ccccc4)CC3)no2)CC1=O (some centres unmarked) [Example 218] | 100 to 500 nM |  |  |  |  |
| C[C@@H]1CN(CC2(CN[C@H]3CC3c3ccccc3)CC2)[C@@H](C)CN1C (some centres unmarked) [Example 221] | 100 to 500 nM |  |  |  |  |
| O=C(O)[C@@H]1CCN1CC1(CN[C@@H]2C[C@H]2c2ccccc2)CC1 [Example 228] | 100 to 500 nM |  |  |  |  |
| c1ccc([C@@H]2C[C@H]2NCC2(c3noc(C4CCNCC4)n3)CC2)cc1 [Example 231] | 50 to 100 nM |  |  |  |  |
| NC[C@H]1CC[C@H](c2nc(C3(CN[C@@H]4C[C@H]4c4ccccc4)CC3)no2)CC1 [Example 239] | ≤ 50 nM |  |  |  |  |
| N[C@H]1CC[C@H](Cc2nc(C3(CN[C@@H]4C[C@H]4c4ccccc4)CC3)no2)CC1 [Example 240] | 50 to 100 nM |  |  |  |  |
| N[C@H]1CC[C@H](c2nnc(C3(CN[C@@H]4C[C@H]4c4ccccc4)CC3)o2)CC1 [Example 243] | 100 to 500 nM |  |  |  |  |
| CC1(N)CCC(c2nc(C3(CN[C@@H]4C[C@H]4c4ccccc4)CC3)no2)CC1 (some centres unmarked) [Example 245] | ≤ 50 nM |  |  |  |  |
| O=C(O)C1CCN(c2nc(C3(CN[C@@H]4C[C@H]4c4ccccc4)CC3)no2)CC1 [Example 253] | 100 to 500 nM |  |  |  |  |
| C/C(=N\NC(=O)c1cccc(S(=O)(=O)N2CCOCC2)c1)c1cc(Cl)ccc1O [HCI-2509, reference compound] | ≤ 50 nM |  |  |  |  |
